In this assay the test system is CD8F1 mice, subcutaneous mammary adenocarcinoma, T/C%. The assay can be described thus: NCI In Vivo Anticancer Drug Screen. Data for tumor model Mammary Adenocarcinoma CD8F1 (subcutaneous) in CD8F1. The following applies: higher = larger tumour. On the procedure: The antitumor activity of compounds was measured in mice bearing transplantable tumors. Survival or tumor size were measured and the results are expressed as the measurement made in the treated group (T) divided by the measurement made in the vehicle treated control group (C). The tumor model used in this assay is Mammary Adenocarcinoma CD8F1 (subcutaneous) in CD8F1

[1] abbreviates: endpoint: median tumor weight change, dose: 125.0 mg/kg/injection, schedule: Q01DX001 (ip), vehicle: saline with Tween-80.
Setting [2] is: endpoint: median tumor weight change, dose: 62.5 mg/kg/injection, schedule: Q01DX001 (ip), vehicle: saline with Tween-80.

Among the data in PubChem BioAssay AID220 (DTP/NCI, 2004) are T/C values, retold here.

Several values for one entry are separate records, joined by “and”; a condition that tells them apart may be missing. Equal entries are not always repeated. Results filed as inconclusive are left out.

As to `N#CCCSC(=S)C1CCCC1=N` (stereo unspecified), the T/C by setting is: under setting [1], 44 % of control; (endpoint: median tumor weight change, dose: 250.0 mg/kg/injection, schedule: Q01DX001 (ip), vehicle: saline with Tween-80) 98 % of control; (endpoint: median tumor weight change, dose: 500.0 mg/kg/injection, schedule: Q01DX001 (ip), vehicle: saline with Tween-80) 86 % of control and 108 % of control.
Turning to `CCOC(=O)c1ccc(NC(=O)Nc2nncs2)cc1`, the T/C is, setting by setting: (endpoint: median tumor weight (est.), dose: 12.5 mg/kg/injection, schedule: Q07DX005 (ip), vehicle: distilled water + Tween-80) 239 % of control; (endpoint: median tumor weight (est.), dose: 25.0 mg/kg/injection, schedule: Q07DX005 (ip), vehicle: distilled water + Tween-80) 259 % of control; (endpoint: median tumor weight (est.), dose: 50.0 mg/kg/injection, schedule: Q07DX005 (ip), vehicle: distilled water + Tween-80) 69 % of control; (endpoint: median tumor weight (est.), dose: 400.0 mg/kg/injection, schedule: Q07DX005 (ip), vehicle: distilled water + Tween-80) 156 % of control.
As for `O=C(O)c1ccc(SSc2ccc(C(=O)O)cn2)nc1`, the T/C reads like this: (endpoint: mean tumor weight, dose: 125.0 mg/kg/injection, schedule: Q07DX004 (ip), vehicle: saline) 123 % of control; (endpoint: mean tumor weight, dose: 250.0 mg/kg/injection, schedule: Q07DX004 (ip), vehicle: saline) 102 % of control; (endpoint: mean tumor weight, dose: 500.0 mg/kg/injection, schedule: Q07DX007 (ip), vehicle: saline) 99 % of control.
In the case of `Nc1nc(=O)n(C2OC(CO)C(O)C2O)cc1F` (stereo unspecified), the T/C (endpoint: median tumor weight (est.), dose: 12.5 mg/kg/injection, schedule: Q07DX005 (ip), vehicle: saline) was 91 % of control; the T/C (endpoint: median tumor weight (est.), dose: 25.0 mg/kg/injection, schedule: Q07DX005 (ip), vehicle: saline) is 93 % of control; the T/C (endpoint: median tumor weight (est.), dose: 50.0 mg/kg/injection, schedule: Q07DX005 (ip), vehicle: saline) was 61 % of control; the T/C (endpoint: median tumor weight (est.), dose: 100.0 mg/kg/injection, schedule: Q07DX005 (ip), vehicle: saline) is 78 % of control; the T/C (endpoint: median tumor weight (est.), dose: 200.0 mg/kg/injection, schedule: Q07DX005 (ip), vehicle: saline) was 46 % of control; the T/C (endpoint: median tumor weight (est.), dose: 400.0 mg/kg/injection, schedule: Q07DX005 (ip), vehicle: saline) is 34 % of control.
Regarding `NC(=O)c1ncn(C2OC(CO)C(O)C2O)c1O` (stereo unspecified), the T/C reads like this: (endpoint: median tumor weight (est.), dose: 50.0 mg/kg/injection, schedule: Q07DX005 (ip), vehicle: Klucel (hydroxypropylcellulose) (HPC)) 85 % of control; (endpoint: median tumor weight (est.), dose: 100.0 mg/kg/injection, schedule: Q07DX005 (ip), vehicle: Klucel (hydroxypropylcellulose) (HPC)) 105 % of control; (endpoint: median tumor weight (est.), dose: 200.0 mg/kg/injection, schedule: Q07DX005 (ip), vehicle: Klucel (hydroxypropylcellulose) (HPC)) 72 % of control; (endpoint: median tumor weight (est.), dose: 400.0 mg/kg/injection, schedule: Q07DX005 (ip), vehicle: Klucel (hydroxypropylcellulose) (HPC)) 83 % of control.
With `CNC(=O)n1c(N)nc(-c2ccccc2)c1-c1ccccc1`, the T/C runs as follows: (endpoint: median tumor weight change, dose: 31.25 mg/kg/injection, schedule: Q01DX001 (ip), vehicle: saline with Tween-80) 93 % of control; under setting [2], 92 % of control; under setting [1], 79 % of control.
As to `C=C1C(C)C2C(Cc3ccccc3)NC(=O)C23C(OC(C)=O)C=CC(C)(O)C(=O)C(C)C/C=C/C3C1O` (stereo unspecified), the T/C was 64 % of control (endpoint: median tumor weight (est.), dose: 0.62 mg/kg/injection, schedule: Q07DX005 (ip), vehicle: saline); 61 % of control (endpoint: median tumor weight (est.), dose: 1.25 mg/kg/injection, schedule: Q07DX005 (ip), vehicle: saline); 94 % of control (endpoint: median tumor weight (est.), dose: 2.5 mg/kg/injection, schedule: Q07DX005 (ip), vehicle: saline); 59 % of control (endpoint: median tumor weight (est.), dose: 5.0 mg/kg/injection, schedule: Q07DX005 (ip), vehicle: saline); 46 % of control (endpoint: median tumor weight (est.), dose: 10.0 mg/kg/injection, schedule: Q07DX005 (ip), vehicle: saline).
Turning to `Cn1c2ccccc2c2ccc3c(c21)C(=O)C=CC3=O`, under setting [2], the T/C was 38 % of control.
As to `CC[C@]1(O)C[C@H]2CN(CCc3c([nH]c4ccccc34)[C@@](C(=O)OC)(c3cc4c(cc3OC)N(C=O)[C@H]3[C@@](O)(C(=O)OC)[C@H](OC(C)=O)[C@]5(CC)C=CCN6CC[C@]43[C@@H]65)C2)C1`, the T/C (endpoint: mean tumor weight, dose: 0.07 mg/kg/injection, schedule: Q01DX009 (ip), vehicle: saline) is 180 % of control; the T/C (endpoint: mean tumor weight, dose: 0.15 mg/kg/injection, schedule: Q01DX009 (ip), vehicle: saline) is 123 % of control; the T/C (endpoint: mean tumor weight, dose: 0.3 mg/kg/injection, schedule: Q01DX009 (ip), vehicle: saline) was 54 % of control; the T/C (endpoint: mean tumor weight, dose: 0.5 mg/kg/injection, schedule: Q07DX006 (ip), vehicle: saline) was 49 % of control; the T/C (endpoint: mean tumor weight, dose: 1.0 mg/kg/injection, schedule: Q07DX006 (ip), vehicle: saline) is 71 % of control; the T/C (endpoint: mean tumor weight, dose: 2.0 mg/kg/injection, schedule: Q07DX006 (ip), vehicle: saline) is 12 % of control. The T/C is, setting by setting: (endpoint: median tumor weight (est.), dose: 0.13 mg/kg/injection, schedule: Q01DX005 (ip), vehicle: saline) 56 % of control; (endpoint: median tumor weight (est.), dose: 0.19 mg/kg/injection, schedule: Q01DX005 (ip), vehicle: saline) 73 % of control; (endpoint: median tumor weight (est.), dose: 0.25 mg/kg/injection, schedule: Q07DX005 (ip), vehicle: saline) 64 % of control and 73 % of control and 84 % of control; (endpoint: median tumor weight (est.), dose: 0.28 mg/kg/injection, schedule: Q01DX005 (ip), vehicle: saline) 105 % of control; (endpoint: median tumor weight (est.), dose: 0.5 mg/kg/injection, schedule: Q07DX005 (ip), vehicle: saline) 39 % of control and 43 % of control and 45 % of control; (endpoint: median tumor weight (est.), dose: 0.95 mg/kg/injection, schedule: Q07DX005 (ip), vehicle: saline) 29 % of control. For the same compound, the T/C is 6 % of control (endpoint: median tumor weight (est.), dose: 1.0 mg/kg/injection, schedule: Q07DX005 (ip), vehicle: saline); 6 % of control (endpoint: median tumor weight (est.), dose: 1.4 mg/kg/injection, schedule: Q04DX005 (ip), vehicle: saline); 8 % of control (endpoint: median tumor weight (est.), dose: 1.4 mg/kg/injection, schedule: Q07DX005 (ip), vehicle: saline); 1 % of control (endpoint: median tumor weight (est.), dose: 2.0 mg/kg/injection, schedule: Q07DX005 (ip), vehicle: saline).
On to `Nc1nc2c(ncn2C2OC(CO)C(O)C2O)c(=O)[nH]1.Nc1nc2c(ncn2C2OC(CO)C(O)C2O)c(=O)[nH]1.[NH2-].[NH2-].[Pt+2]` (stereo unspecified), for which the T/C reads like this: (endpoint: median tumor weight (est.), dose: 12.5 mg/kg/injection, schedule: Q07DX005 (ip), vehicle: water) 52 % of control; (endpoint: median tumor weight (est.), dose: 25.0 mg/kg/injection, schedule: Q07DX005 (ip), vehicle: water) 61 % of control; (endpoint: median tumor weight (est.), dose: 50.0 mg/kg/injection, schedule: Q07DX005 (ip), vehicle: water) 34 % of control; (endpoint: median tumor weight (est.), dose: 100.0 mg/kg/injection, schedule: Q07DX005 (ip), vehicle: water) 51 % of control; (endpoint: median tumor weight (est.), dose: 200.0 mg/kg/injection, schedule: Q07DX005 (ip), vehicle: water) 40 % of control.
In the case of `OCC(O)C(O)C(O)C(O)CO` (stereo unspecified), the T/C is 20 % of control (endpoint: median tumor weight change, dose: 75.0 mg/kg/injection, schedule: Q01DX001 (ip), vehicle: saline); 40 % of control (endpoint: median tumor weight change, dose: 150.0 mg/kg/injection, schedule: Q01DX001 (ip), vehicle: saline); 39 % of control (endpoint: median tumor weight change, dose: 300.0 mg/kg/injection, schedule: Q01DX001 (ip), vehicle: saline); 32 % of control (endpoint: median tumor weight change, dose: 600.0 mg/kg/injection, schedule: Q01DX001 (ip), vehicle: saline); 45 % of control (endpoint: median tumor weight change, dose: 1200.0 mg/kg/injection, schedule: Q01DX001 (ip), vehicle: saline).
In the case of `CN1CCc2c(c3ccccc3c3ccccc23)C1`, the T/C is 57 % of control (endpoint: median tumor weight change, dose: 12.5 mg/kg/injection, schedule: Q01DX001 (ip), vehicle: Klucel (hydroxypropylcellulose) (HPC)); 65 % of control (endpoint: median tumor weight change, dose: 25.0 mg/kg/injection, schedule: Q01DX001 (ip), vehicle: Klucel (hydroxypropylcellulose) (HPC)); 49 % of control (endpoint: median tumor weight change, dose: 50.0 mg/kg/injection, schedule: Q01DX001 (ip), vehicle: Klucel (hydroxypropylcellulose) (HPC)); 74 % of control (endpoint: median tumor weight change, dose: 62.5 mg/kg/injection, schedule: Q01DX001 (ip), vehicle: Klucel (hydroxypropylcellulose) (HPC)); 27 % of control (endpoint: median tumor weight change, dose: 100.0 mg/kg/injection, schedule: Q01DX001 (ip), vehicle: Klucel (hydroxypropylcellulose) (HPC)); 56 % of control (endpoint: median tumor weight change, dose: 125.0 mg/kg/injection, schedule: Q01DX001 (ip), vehicle: Klucel (hydroxypropylcellulose) (HPC)).
